# What was measured:
# [1] = Lipid clearance: mouse liver tissue level and % dose remaining in liver after intravenous administration; type: in vivo
# [2] = pH, osmolality and zeta potential of nanoparticle compositions; type: physicochemical; conditions: nanoparticle composition with hEPO mRNA (Table 30)
# female CD-1 mice = assay: Luciferase expression after subcutaneous administration of lipid/mRNA formulations (whole body BLI); type: in vivo; conditions: 0.5 mpk
# Description: The effect of the lipids of the disclosure on protein expression upon subcutaneous administration was studied. Formulations containing lipids of the disclosure and an mRNA expressing luciferase or hEPO were administered subcutaneously to female CD-1 mice at 0.5 mpk. Expression levels were obtained via whole body luminescent imaging (BLI) at 3, 6 and 24 hours after injection and expression levels in liver, spleen and at the injection site were evaluated ex vivo after 24 hours. […] See also Tables 35 and 36, and FIGS. 19 and 27.
# Table 35 summarizes the luciferase expression levels using various nanoparticle compositions of the disclosure, and the luciferase expression levels using various nanoparticle compositions 6f the disclosure as compared to the luciferase expression level using an MC3 formulation after subcutaneous administration, as described above.
# hEPO mRNA [3] = assay: hEPO expression and pharmacokinetic parameters after intravenous infusion to non-human primates; type: in vivo; conditions: 0.01 mpk, iv infusion 60 minutes, cynomolgus monkeys
# human hepatocytes = assay: Metabolite profiling of Compound 18 incubated with human hepatocytes; type: in vitro ADME; set-up: key: +: Detected; ND: Not detected; conditions: Compound 18 (10 μM)
# Description: (§1) In vitro metabolite identification studies using compound 18 were also performed. […] The disappearance of parent compound 18 and the primary metabolite, compound 166, from mouse liver tissue was measured after dosing 0.25 mg/kg mRNA on days 1, 8, and 15.
# The results of metabolic profiling and characterization for compound 18 incubated with human hepatocytes or human plasma are summarized in Tables 41 and 42, respectively.
# [4] = Metabolite identification of Compound 18 incubated with human plasma; type: in vitro ADME; set-up: key to Detection at 0 min / Detection at 30 min / Detection at 60 min / Detection at 90 min: +: Detected; ND: Not detected
# Description: Metabolite Identification: Compound 18 (10 μM) was incubated with human plasma (29.0 mg protein/incubation) in incubation mixtures (200 μL final incubation volume) that consisted of 50/50 v/v neat plasma (undiluted)/substrate solution in 50 mM phosphate buffer, pH 7.4). The plasma was obtained from male and female donors and contained K2EDTA anticoagulant. Reactions were started by addition of the substrate solution to human plasma and were stopped at four designated time points (0, 30, 60 and 90 min) by the addition of 600 μL of stop reagent (acetonitrile). Stopped incubation samples were centrifuged (e.g., 10,000×g for 10 min at 10° C.) and the supernatant fractions were analyzed by LC-MS/MS to characterize the metabolites formed from compound 18. Additional incubations were performed with the positive control procaine […] to establish competency of the test system. Samples were analyzed by LC-MS/MS.
# as §1
# mouse liver tissue = assay: Disappearance of parent lipid and primary metabolite from mouse liver after 0.25 mg/kg mRNA on days 1, 8 and 15; type: in vivo
# Description: as §1
# hEPO mRNA [5] = assay: hEPO expression after subcutaneous administration to mice; type: in vivo, CD-1 mice; conditions: 6 hr. time point, relative to MC3
# Description: The numbers 1-11 in this figure correspond to MC3, PBS, and Compounds 18, 25, 48, 49, 111, 60, 168, 207, and 233, respectively.
# FIG. 27 is a graph showing the hEPO mRNA expression in CD1-mice measured 3 h (left block), 6 h (middle block) and 24 h (right block) after subcutaneous administration of various nanoparticle compositions at 0.5 mpk. Numbers 1-9 refer to compositions containing an mRNA expressing hEPO and the following: 1: PBS, 2: Compound 18, 3: Compound 30; 4: Compound 96; 5: Compound 151; 6: Compound 98; 7: Compound 163; 8: Compound 164; 9: Compound 165.
# cynomolgus monkeys = assay: Human IgG (anti-influenza A antibody mRNA) expression in non-human primates; type: in vivo, cynomolgus monkey; conditions: NHP, single dose
# Description: NHP studies: Nonhuman primate studies were conducted using naïve cynomolgus monkeys (cynos), 2-4 years old, weighing 2-6 kg. No treatment randomization or blinding methods were used for any of the animal studies. Sample sizes were determined by the resource equation method. For injection, mRNA-LNPs in phosphate buffered saline (PBS) were administered by 60-minute intravenous infusion using a temporary indwelling catheter inserted in a peripheral vein.
# Human IgG analysis for NHP samples: A 10.0-μL matrix aliquot is transferred to a low protein binding 96-well plate. A 25.0-μL aliquot of the working internal standard solution is added, and the sample aliquot is diluted with loading buffer. […] The final extract is analyzed via HPLC with MS/MS detection using positive ion electrospray. A linear, 1/concentration^2 weighted, least-squares regression algorithm is used to quantitate unknown samples.
# NHP more closely approximates clinical responses for LNP-based systems than rodent (DeRosa, F., Guild, B., Karve, S., Smith, L., Love, K., Dorkin, J R., et. al. Therapeutic efficacy in a hemophilia B model using a biosynthetic mRNA liver depot system. Gene Ther. 2016, 23, 699-707, the contents of which are incorporated herein by reference in their entireties). […] A separate study evaluated the lipid tissue accumulation in NHP after a single dose.
compound,measurement,setting,value
"CCCCCC=CCC=CCCCCCCCCC(CCCCCCCCC=CCC=CCCCCC)OC(=O)CCCN(C)C (stereo not drawn) [MC3, heptatriaconta-6,9,28,31-tetraen-19-yl 4-(dimethylamino)butanoate, reference compound]",% Dose Remaining in Liver 6 h,[1]; first column headed 6 h (Table 3D),80%
same,% Remaining dose at 6 h,"[1]; mouse liver, 6 h",>98%
same,% Remaining dose at 24 h,"[1]; mouse liver, 24 h",79.7%
same,concentration at 6 h,"[1]; mouse, liver, 0.5 mg/kg, 6 h",85400 ng/g
same,concentration at 24 h,"[1]; mouse, liver, 0.5 mg/kg, 24 h",67400 ng/g
same,% Dose Remaining in Liver 6 h,[1]; second column headed 6 h (Table 3D),54%
same,Osmolality,[2],318 mOsm/kg
same,Zeta potential,[2],−3.64 mV
same,pH,[2],7.52
same,Lipid/MC3 AUC ratio (luciferase),female CD-1 mice,1
same,Luciferase expression AUC,"female CD-1 mice; BLI at 3, 6 and 24 hours",1.7127E+10 (p/s)*h
same,AUC Lipid/MC3 Ratio,hEPO mRNA [3],1.0
"CCCCCCCCCOC(=O)CCCCCCCN(CCO)CCCCCCCC(=O)OC(CCCCCCCC)CCCCCCCC [Compound 18, Heptadecan-9-yl 8-((2-hydroxyethyl)(8-(nonyloxy)-8-oxooctyl)amino)octanoate]",Detection at 0 min,"human hepatocytes; human hepatocytes (1 million cells/mL), 0 min",+
same,Detection at 60 min,"human hepatocytes; human hepatocytes, 60 min",+
same,Detection at 120 min,"human hepatocytes; human hepatocytes, 120 min",+
same,Detection at 240 min,"human hepatocytes; human hepatocytes, 240 min",+
same,Detection at 0 min,"[4]; Compound 18 (10 μM), human plasma (29.0 mg protein/incubation), 0 min",+
same,Detection at 30 min,"[4]; Compound 18 (10 μM), human plasma, 30 min",+
same,Detection at 60 min,"[4]; Compound 18 (10 μM), human plasma, 60 min",+
same,Detection at 90 min,"[4]; Compound 18 (10 μM), human plasma, 90 min",+
same,initial step of metabolism,[4]; in vitro metabolite identification studies,hydrolysis of the primary ester
same,clearance from mouse liver tissue,mouse liver tissue,rapid clearance
same,"Novel lipid/MC3 expression ratio, s.c. hEPO 0.5 mpk",hEPO mRNA [5],4.26
same,increase in expression of anti-human IgG influenza A antibody compared to an MC3 LNP,cynomolgus monkeys,5 fold
